Laboratory results published in patent US10774082B2, “Quinazoline compound” (Astellas Pharma Inc., priority 2017, dated 2020).
Where two headings read alike, the source gives them in different places.

How the values were obtained:
[1] = target: T1, KRAS G12C/SOS/c-Raf complex (Homo sapiens, UniProt P01116, G12C); experiment: KRAS G12C/SOS/c-Raf complex formation inhibitory action (TR-FRET); type: biochemical; conditions: one hour at room temperature, read-out: IC50 (KRAS G12C/SOS/c-Raf complex formation inhibition)
T1 construct: Biotinylated AviTag-KRAS G12C (amino acid region 1-185, GDP)
Method: Evaluation of KRAS G12C/SOS/c-Raf Complex Formation Inhibitory Action
Human Recombinant KRAS G12C, SOS, and c-Raf protein were used, and with respect to the complex formation of these proteins, an inhibitory action of the test compound was examined through a time-resolved fluorescence resonance energy transfer (TR-FRET) method.
Biotinylated AviTag-KRAS G12C (amino acid region 1-185, GDP) (2.5 μL; 400 nM) dissolved in assay buffer (50 mM HEPES, 150 mM NaCl, 5 mM MgCl2, 0.05% Tween 20, pH 7.4) and test compound were added in a volume of 2.5 μL from 4,000 nM to 4 nM were added to 384 well plate (Corning Inc). Son of Sevenless (SOS) (amino acid region 564-1049, 2.5 μL; 1.3 μM) and c-Raf (amino acid region 51-131) GST containing GTP (Sigma-Aldrich Co. LLC) (2.5 μL; 130 nM and 4 μM of each) were added to the above mixture, and the resultant was left to stand for one hour at room temperature. Thereafter, a mixed solution (10 μL) of LANCE Ulight-anti-GST (120 nM, PerkinElmer. Co., Ltd) and LANCE Eu-W1024 labeled Streptoavidin (100 ng/mL, PerkinElmer. Co., Ltd) was added, and a fluorescence intensity on the condition of wavelength of 620 nm and 665 nm was measured by using EnVision 2103 Multilabel Reader (PerkinElmer Co., Ltd.) under the condition of excitation wavelength of 337 nm. […] In Tables, Ex represents Example numbers described later. In addition, in Tables, Compound C represents a test compound of Example I-59 disclosed in Pamphlet of International Publication No. WO 2016/164675, and the structures of Reference Example 1 and Reference Example 2 are indicated in Table 168 described below (the same shall apply hereinafter).

[2] = system: ERK phosphorylation (Thr 202/Tyr 204) in NCI-H1373 cells; experiment: ERK phosphorylation inhibitory action in NCI-H1373 (Cell ELISA); type: cell-based, Human; conditions: Homo sapiens, NCI-H1373, 2 h, read-out: IC50 (ERK phosphorylation inhibition)
Method: Evaluation of ERK Phosphorylation Inhibitory Action with Respect to Human KRAS G12C Mutation Positive Non-Small Cell Lung Cancer Strain NCI-H1373
The ERK phosphorylation inhibitory action by the test compound was evaluated by measuring phosphorylation of 202th threonine (Thr 202) and 204th tyrosine (Tyr 204) of ERK on the downstream of the KRAS signal by Cell ELISA.
NCI-H1373 cells (ATCC, CRL-5866) were seeded in 384 well plates (Greiner bio-one) at 36 μL/well each so as to be 2×10^4 cell per well. Cell culture was performed under the conditions of temperature of 37° C. in the presence of 5% CO2 by using RPMI 1640 medium (Sigma-Aldrich Co. LLC) containing 10% fetal bovine serum (GE Life Sciences).
The next day, the test compounds (six points in a range of final concentration 1,000 nM to 0.3 nM), final concentration 1 μM of Trametinib (GlaxoSmithKline Inc.; MEK inhibitor) as a positive control, and DMSO which is a solvent of the test compound as a negative control were diluted 100-fold with fresh medium, 4 μL each was added to each well, and then cultured for 2 hours. Immediately after culturing, 30 μL of 30% glyoxal solution (Wako: 40% glyoxal diluted with Phosphate Buffered Saline (PBS; Wako)) was added to each well, and the cells were left to stand at room temperature for one hour to be fixed. Thereafter, the supernatant was removed by centrifuging the plate (110×g for 7 seconds, unless otherwise stated below under the same conditions), and 20 μL of PBS containing 0.1% Triton X-100 (Amersham Biosciences Corp.) was added to each well. After being left to stand at room temperature for 10 minutes, the supernatant was removed by centrifugation, and the same operation was repeated. Next, 20 μL of PBS containing 0.5% SDS (Invitrogen) was added to each well, and the mixture was left to stand at room temperature for 30 minutes, and then centrifuged to remove the supernatant. Subsequently, 20 μL of a blocking solution (ODYSSEY Blocking Buffer; LI-COR Biosciences) was added to each well, and left to stand at room temperature for one hour. The supernatant was removed by centrifugation, and 10 μL of a blocking solution prepared by diluting ERK (Thr 202/Tyr 204) of a phosphorylation antibody (Cell Signaling Technology, Inc.) as a primary antibody to be ½, 500 amount with respect to a stock solution was added to each well and was left to stand at 4° C. for overnight.
The next day, a reaction liquid is removed by centrifuging the plate, 20 μL of 0.05% Tween-20-containing PBS (Thermo Scientific; 20×PBS Tween-20 diluted 20-fold with ion exchanged water) was added to each well, and each well was washed by removing the supernatant by centrifugation. Washing was performed three times in total. After washing, 10 μL of a blocking solution prepared by diluting IRDye 800CW Goat anti-Rabbit IgG (LI-COR Biosciences) as a secondary antibody to be 1/1,000 amount with respect to a stock solution was added to each well and was left to stand at room temperature for one hour. The reaction liquid was removed by centrifuging the plate, and each well was washed three times with 0.05% Tween-20-containing PBS in the same manner as after primary antibody reaction. The centrifugation after the third wash was 171×g for 17 seconds. After removal of the cleaning solution, the plate was left to air dry at room temperature for three hours or more and the fluorescent signal at 800 nm was measured by Aerius (LI-COR Biosciences).
When a signal value at the time of adding DMSO was set as 0% inhibition, and a signal value at the time of adding 1 μM of Trametinib was set as 100% inhibition, a value of 50% inhibition (IC50) was calculated through Sigmoid-Emax model nonlinear regression analysis.

[3] = system: NCI-H1373 cells; experiment: Anchorage-independent cell proliferation inhibitory action, NCI-H1373 spheroid three-dimensional culture; type: cell-based, Human; conditions: Homo sapiens, NCI-H1373, 144 h, read-out: IC50 (anchorage-independent cell proliferation inhibition)
Method: Evaluation of Anchorage-Independent Cell Proliferation Inhibitory Action with Respect to Human KRAS G12C Mutation Positive Non-Small Cell Lung Cancer Strain NCI-H1373
An anchorage-independent cell proliferation inhibitory action by the test compound was evaluated by a spheroid three-dimensional culture.
NCI-H1373 cells were seeded in cell low adsorption U bottom 384 well plates (Prime Surface: Sumitomo Bakelite Co., Ltd.) at 36 μL/well each so as to be 5×10^2 cell per well. The cell culture was performed under the same conditions as Test example 2.
The next day, the test compounds (six points in a range of final concentration 1,000 nM to 0.3 nM) and DMSO which is a solvent of the test compound as a negative control were diluted 100-fold with fresh medium, 4 μL each was added to each well. After culturing at 37° C. in the presence of 5% CO2 for six days, 20 μL of CellTiter Glo or to CellTiter Glo 2.0 (Promega Corporation) was added to each well. After stirring for one hour at room temperature using a plate mixer (FINEPCR), an emission signal was measured with ARVO X3 (PerkinElmer Co., Ltd.).
When a signal value in a DMSO treatment was set as 0% inhibition, and a signal value in cell-free medium only was set as 100% inhibition, a value of 50% inhibition (IC50) was calculated through Sigmoid-Emax model nonlinear regression analysis.

[4] = NCI-H1373 cells, cultured for 2 hours, 100% = 1 μM Trametinib
[5] = NCI-H1373 spheroid, six days, CellTiter Glo

T1 sequence (P01116 1-185 isoform P01116-2 G12C, one chain of several): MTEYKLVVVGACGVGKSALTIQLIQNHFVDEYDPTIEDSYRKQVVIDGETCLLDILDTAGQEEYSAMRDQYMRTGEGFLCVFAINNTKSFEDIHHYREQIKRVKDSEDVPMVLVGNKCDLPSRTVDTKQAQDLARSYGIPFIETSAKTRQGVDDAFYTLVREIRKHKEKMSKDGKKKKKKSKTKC

IC50 [1] | IC50 [2, 4] | IC50 [3, 5] | SMILES | IC50 [2] | IC50 [3]
34 nM | 6.4 nM | 12 nM | C=CC(=O)N1CC2(CCN(c3nc(OC4CCN(C)CC4)nc4c(OCC(F)F)c(-c5c(C)ccc6[nH]ncc56)c(C=C)cc34)CC2)C1 [Ex 1] |  | 
42 nM | 6.2 nM | 14 nM | C=CC(=O)N1CC2(CCN(c3nc(OC4CCN(CCOCC5CC5)CC4)nc4c(OCC(F)(F)F)c(-c5c(C)ccc6[nH]ncc56)c(C=C)cc34)CC2)C1 [Ex 41] |  | 
59 nM | 8.9 nM | 24 nM | C=CC(=O)N1CC2(CCN(c3nc(SC4CCN(C)CC4)nc4c(OCC(F)(F)F)c(-c5c(C)ccc6[nH]ncc56)c(C=C)cc34)CC2)C1 [Ex 51] |  | 
43 nM | 16 nM | 62 nM | COCCN1CCC(Oc2nc(N3CCC4(CC3)CN(C(=O)/C=C/C(F)(F)F)C4)c3cc(C4CC4)c(-c4c(C)ccc5[nH]ncc45)c(OCC(F)F)c3n2)CC1 [Ex 82] |  | 
32 nM | 2.6 nM | 3.5 nM | C=CC(=O)N1CC2(CCN(c3nc(OC4CCN(CC)CC4)nc4c(OCC)c(-c5c(C)c(F)cc6[nH]ncc56)c(C=C)cc34)CC2)C1 [Example 8] |  | 
55 nM | 3.8 nM | 5.5 nM | C=CC(=O)N1CC2(CCN(c3nc(OC4CCN(CC)CC4)nc4c(OCC(F)(F)F)c(-c5c(C)ccc6[nH]ncc56)c(C=C)cc34)CC2)C1 [Example 9] |  | 
34 nM | 5.7 nM | 10 nM | C=CC(=O)N1CC2(CCN(c3nc(OC4CCN(CC)CC4)nc4c(OCC(F)F)c(-c5c(C)ccc6[nH]ncc56)c(C=C)cc34)CC2)C1 [Example 10] |  | 
38 nM | 10 nM | 12 nM | C=CC(=O)N1CC2(CCN(c3nc(OC4CCN(CC)CC4)nc4c(OC5CC(F)(F)C5)c(-c5c(C)ccc6[nH]ncc56)c(C=C)cc34)CC2)C1 [Example 11] |  | 
46 nM | 5.9 nM | 7.3 nM | C=CC(=O)N1CC2(CCN(c3nc(OC4CCN(CC)CC4)nc4c(OCC)c(-c5c(C)ccc6[nH]ncc56)c(C5CC5)cc34)CC2)C1 [Example 18] |  | 
48 nM | 4.5 nM | 15 nM | C=CC(=O)N1CC2(CCN(c3nc(OC4CCN(CC)CC4)nc4c(OC5CCC5)c(-c5c(C)ccc6[nH]ncc56)c(C5CC5)cc34)CC2)C1 [Example 19] |  | 
32 nM | 6.5 nM | 11 nM | C=CC(=O)N1CC2(CCN(c3nc(OC4CCN(CC)CC4)nc4c(OC5CCC5)c(-c5c(C)ccc6[nH]ncc56)c(C=C)cc34)CC2)C1 [Example 20] |  | 
65 nM | 14 nM | 27 nM | C=CC(=O)N1CC2(CCN(c3nc(OC4CCN(CC)CC4)nc4c(OCC)c(-c5c(Cl)ccc6[nH]ncc56)c(C=C)cc34)CC2)C1 [Example 21] |  | 
39 nM | 4.6 nM | 15 nM | C=CC(=O)N1CC2(CCN(c3nc(OC4CCN(CC)CC4)nc4c(OCC(F)F)c(-c5c(C)ccc6[nH]ncc56)c(C5CC5)cc34)CC2)C1 [Example 22] |  | 
39 nM | 4.9 nM | 5.9 nM | C=CC(=O)N1CC2(CCN(c3nc(OC[C@@H]4CCCN4C)nc4c(OCC)c(-c5c(C)ccc6[nH]ncc56)c(C5CC5)cc34)CC2)C1 [Example 23] |  | 
40 nM | 3.3 nM | 6.5 nM | C=CC(=O)N1CC2(CCN(c3nc(OC4CCN(CCCOC)CC4)nc4c(OCC(F)(F)F)c(-c5c(C)ccc6[nH]ncc56)c(C=C)cc34)CC2)C1 [Example 27] |  | 
44 nM | 4.4 nM | 13 nM | C=CC(=O)N1CC2(CCN(c3nc(N4CCC(N(C)C)CC4)nc4c(OCC(F)(F)F)c(-c5c(C)ccc6[nH]ncc56)c(C=C)cc34)CC2)C1 [Example 42] |  | 

SMILES | IC50 [1] | IC50 [2, 4] | IC50 [3, 5] | IC50 [2] | IC50 [3]
C=CC(=O)N1CC2(CCN(c3nc(OC4CCN(C(C)C)CC4)nc4c(OCC)c(-c5c(C)ccc6[nH]ncc56)c(C=C)cc34)CC2)C1 [Example 12] | 23 nM |  |  | 6.7 nM | 11 nM
C=CC(=O)N1CC2(CCN(c3nc(OC4CCN(CCOC)CC4)nc4c(OCC)c(-c5c(C)ccc6[nH]ncc56)c(C=C)cc34)CC2)C1 [Example 13] | 37 nM |  |  | 11 nM | 13 nM
C=CC(=O)N1CC2(CCN(c3nc(OC[C@@H]4CCCN4C)nc4c(OCC(F)F)c(-c5c(C)ccc6[nH]ncc56)c(C=C)cc34)CC2)C1 [Example 14] | 50 nM |  |  | 6.1 nM | 8.8 nM
C=CC(=O)N1CC2(CCN(c3nc(OC4CCN(C)CC4)nc4c(OC5CCC5)c(-c5c(C)ccc6[nH]ncc56)c(C=C)cc34)CC2)C1 [Example 17] | 34 nM |  |  | 4.9 nM | 12 nM
C=CC(=O)N1CC2(CCN(c3nc(OC4CCN(C5CC5)CC4)nc4c(OCC)c(-c5c(C)ccc6[nH]ncc56)c(C5CC5)cc34)CC2)C1 [Example 43] | 50 nM |  |  | 5 nM | 6 nM
